# Data from PMC13242511, “Disrupting Notch signalling by a small molecule inhibiting dihydroorotate dehydrogenase activity” (Scientific Reports, 2026).
# Legend:
# Assay type in all cases: cell-based
# [1] = system: Notch signalling; assay: Notch reporter assay (12xCSL firefly luciferase / renilla luciferase, HEK293T Notch1ΔE reporter cell line clone #A1-11); settings: 24 h, unit from Fig. 2 legend
# [2] = system: Notch signalling; assay: as above; parameters: Confirmation screen: unit not given here; settings: for inhibitor ratio in % of DMSO in 3 point DR: 3-point DR confirmation screen, Notch reporter assay
# Procedure, shortened: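 Compounds at two-fold concentration in 10 µl medium were brought to one-fold by adding 10 µl holding 4000 Notch reporter cells (clone #A1-11) per well of a 384-well plate. After 24 h, Promega dual-GLO firefly and renilla luciferase were read on a SpectraMaxi3. Dose-response curves were fitted with a log(inhibitor) vs. response variable-slope model.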
# [3] = target: γ-secretase complex (Homo sapiens, UniProt P49768); assay: APP-C99 counter assay (GSI reporter assay); settings: for 3p-DR in % of DMSO counter: APP-C99 counter assay
# Procedure, shortened: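 γ-secretase activity reported via APP cleavage driving firefly luciferase, normalized to renilla. After 24 h transfection then 24 h compound exposure, signals were read (0.1 s integration). Triplicate dose–responses fitted by variable-slope four-parameter model for IC50; area under curve also derived.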
# [4] = 10 µM, sheet conf vs counter 10 µM, same values as 3-point DR confirmation screen
# [5] = 25 µM, Notch reporter 3-point dose-confirmation assay, sheet "conf vs counter 25 µM"
# [6] = 10 µM, sheet conf vs counter 10 µM
# [7] = 25 µM, sheet "conf vs counter 25 µM", same values given as % of DMSO in sheet "3p-DR in % of DMSO counter"
SMILES,Primary screen at 10 µM (Notch reporter signal) [1],inhibitor ratio in % of DMSO in 3 point DR ([2]; 10µM),"Confirmation screen [2, 4]",inhibitor ratio in % of DMSO in 3 point DR ([2]; 25µM),"Confirmation screen [2, 5]","inhibitor ratio in % of DMSO in 3 point DR ([2]; 1,25µM)",3p-DR in % of DMSO counter ([3]; 10µM),"Counter screen (Hek APP-C99) [3, 6]",3p-DR in % of DMSO counter ([3]; 25µM),"Counter screen (Hek APP-C99) [3, 7]","3p-DR in % of DMSO counter ([3]; 1,25µM)"
CCCC(=O)c1ccc(S(=O)(=O)N2CCN(Cc3csc(-c4ccccc4)n3)CC2)cc1 [CBK063161],68.2 % of DMSO,67.2 % of DMSO,67.2,76.4 % of DMSO,76.4,102.6 % of DMSO,124.1 % of DMSO,124.1,120.8 % of DMSO,120.8,122.5 % of DMSO
Nc1ccc(Sc2nccnc2N2CCCC2)cc1 [CBK089520],43.1 % of DMSO,42.1 % of DMSO,42.1,27.1 % of DMSO,27.1,103.0 % of DMSO,34.9 % of DMSO,34.9,11.6 % of DMSO,11.6,115.4 % of DMSO
COc1cc(Nc2cc(-c3ccccc3N(C)C)ncn2)cc(OC)c1OC [CBK090702],68.4 % of DMSO,85.7 % of DMSO,85.7,55.7 % of DMSO,55.7,97.2 % of DMSO,148.1 % of DMSO,148.1,225.5 % of DMSO,225.5,124.5 % of DMSO
CC(C)Nc1cncc(OCc2ccc(Cl)c(Cl)c2)n1 [CBK115653],41.7 % of DMSO,44.3 % of DMSO,44.3,30.6 % of DMSO,30.6,102.4 % of DMSO,31.9 % of DMSO,31.8,19.5 % of DMSO,19.5,104.9 % of DMSO
NC(=O)c1[nH]nc(C2OC(CO)C(O)C2O)c1O (stereo not drawn) [CBK201236],54.3 % of DMSO,67.4 % of DMSO,67.4,65.5 % of DMSO,65.5,68.2 % of DMSO,107.3 % of DMSO,107.3,111.1 % of DMSO,111.1,135.7 % of DMSO
NC(=O)c1c(NC(=S)NC(NC(=O)c2ccccc2)C(Cl)(Cl)Cl)sc2c1CCCC2 (stereo not drawn) [CBK261048],67.0 % of DMSO,66.7 % of DMSO,66.7,49.9 % of DMSO,49.9,102.1 % of DMSO,72.6 % of DMSO,72.6,66.8 % of DMSO,66.8,111.1 % of DMSO
O=C(Nc1ccc(O)c(-c2nc3ccccc3o2)c1)c1ccc(-c2ccc([N+](=O)[O-])cc2)o1 [CBK263439],63.7 % of DMSO,110.7 % of DMSO,110.7,101.9 % of DMSO,101.9,103.9 % of DMSO,127.0 % of DMSO,127.0,166.0 % of DMSO,166.0,130.0 % of DMSO
O=C(NC(Nc1cccc(C(F)(F)F)c1)C(=O)c1ccccc1)c1ccc(Cl)cc1 (stereo not drawn) [CBK263585],61.4 % of DMSO,59.9 % of DMSO,59.9,46.6 % of DMSO,46.6,104.0 % of DMSO,79.4 % of DMSO,79.4,84.5 % of DMSO,84.5,97.7 % of DMSO
COc1ccc(N(CC(O)CN2CCOCC2)S(=O)(=O)c2ccccc2)cc1 (stereo not drawn) [CBK263589],69.0 % of DMSO,96.3 % of DMSO,96.3,100.1 % of DMSO,100.1,103.6 % of DMSO,81.1 % of DMSO,81.1,76.7 % of DMSO,76.7,74.5 % of DMSO
O=C(Nc1sccc1C(=O)N1CCOCC1)C(Sc1ccccc1)c1ccccc1 (stereo not drawn) [CBK268165],64.8 % of DMSO,60.1 % of DMSO,60.1,57.1 % of DMSO,57.1,101.2 % of DMSO,58.6 % of DMSO,58.6,58.2 % of DMSO,58.2,84.7 % of DMSO
COc1ccc2cc(C(=O)N3CCC(c4ccncc4)CC3)[nH]c2c1 [CBK283799],60.5 % of DMSO,56.5 % of DMSO,56.5,73.6 % of DMSO,73.6,82.5 % of DMSO,49.5 % of DMSO,49.5,70.8 % of DMSO,70.8,72.9 % of DMSO
c1ccc2c(c1)CCN(c1nc3cc4c(cc3s1)OCCO4)C2 [CBK287498],36.8 % of DMSO,38.9 % of DMSO,38.9,27.1 % of DMSO,27.1,48.5 % of DMSO,45.9 % of DMSO,45.9,37.5 % of DMSO,37.5,59.5 % of DMSO
